In patent US7884136B2, “Modified-release formulations of a bupropion salt” (Biovail Laboratories International S.R.L., priority 2005, dated 2011):

How the values were obtained:
[1] = TGA experiment at 100° C., loss of API salt over time; assay type: physicochemical; conditions: TGA at 100° C.
Procedure: The average weight of the excipients and the weight of the active pharmaceutical ingredient (API) present in the samples are presented in Table 72. […] FIG. 53 is a graph showing the loss of each salt over time in a TGA experiment at 100° C.

[2] = Forced degradation stability study of bupropion salts spiked with placebo/excipients, closed vials, 40° C./75% RH, HPLC assay and impurities
Procedure: The stability of the salts was evaluated based on the formation of the main degradation products (see below) as determined by HPLC analysis and the % potency (or assay) of the API, after specific time periods in the stability chamber. The effect of the addition of solvents, such as water, ethanol and isopropyl alcohol, was also studied.
The samples of each salt and the spiked salts with the bupropion HCl XL were prepared under the conditions mentioned in Table 4. […] The stability of the bupropion salts were evaluated based on the formation of the main degradation product 3-chlorobenzoic acid (3-CBZ) and the intermediate degradation products diketone 827U76 and the ketohydroxyl derivatives (20U78 and 852U77) (Scheme 2).
As mentioned above, the stability samples were prepared in 2 mL vials and used directly for assay and impurity analysis by HPLC without further sample preparations to minimize errors.

[3] = pH of 0.5% aqueous solution of bupropion salts; assay type: physicochemical
Procedure: (§1) The eight salts were first evaluated by HPLC, KF, pH and DSC for purity, water content, aqueous pH and possible polymorphs.
(§2) The salts were analysed by DSC (at 10° C./min from 30° C. up to 400° C.) and the pH (aq. 0.5%), and the moisture content by KF were also measured. The TGA was performed on the HCl, maleate, tosylate and HBr salts.

[4] = Moisture content of bupropion salts by KF; assay type: physicochemical
Procedure: as §1, §2

[5] = Solubility of Bupropion HBr vs Bupropion HCl in water, EtOH, IPA; assay type: physicochemical
[6] = Forced degradation of bupropion HBr and HCl in the presence of excipients at 55° C., 55° C./100% RH, 100° C. and 105° C.; assay type: physicochemical; conditions: 24 and 48 hours at 55° C., 105 degrees C., hydrobromide
Procedure: Forced degradation studies were also performed on bupropion HBr and bupropion HCl API's in the presence of standard excipients used in pharmaceutical formulations.
Further forced degradation studies were carried out at 55° C., at 55° C. and 100% relative humidity, at 100° C., and at 105° C. on both the HCl and HBr Bupropion salts in the presence of excipients. The average weight of the excipients and the weight of the active pharmaceutical ingredient (API) present in the samples are presented in Table 72. […] FIG. 53 is a graph showing the loss of each salt over time in a TGA experiment at 100° C.

[7] = Dynamic Vapour Sorption (DVS) hygroscopicity of bupropion HBr; assay type: physicochemical; conditions: for DVS: water uptake / hygroscopicity (words): range 0% RH-90% RH, hydrobromide
[8] = Comparative forced degradation of bupropion HCl and HBr API salts, closed glass bottle, 40° C./75% RH, HPLC; assay type: physicochemical; conditions: for % Assay / % Impurities 3-CBZ / % Impurities 20U78/dilu / % Impurities 827U76 / % Impurities 852U77 / % Impurities Total unknown / Total (%) impurities: closed glass bottle
Procedure: Further stability tests were performed by directly comparing bupropion HBr and bupropion HCl salts in forced degradation studies. […] At specified times, the material in the bottles was analyzed for the presence of degradation products and % potency (% assay).
The samples were exposed to the above conditions in a closed bottle for few days, and then subjected to HPLC analysis. The amount of the main degradation products present after treatment were compared with those amounts that were present initially.
The samples were analysed after 14 and 24 days (study-1) and 10 days (study II), in a quantitative manner by direct treatment of the whole content of the bottle as per the HPLC standard test method (P05.901.10).

[9] = Release of bupropion base from bupropion HCl and HBr; assay type: physicochemical
Procedure: It was previously observed that when 150 mg of bupropion HCl was tested for its release of bupropion, the base value that was released was 130 mg.

[10] = In IPA/EtOH, 32 days, closed vials
[11] = In water, 32 days, closed vials
[12] = salt plus excipients, 20 days, closed vial, 40° C./75% RH
[13] = repeat study, 40 C/75% RH, 10 Days, Lot# STN07491, hydrobromide
[14] = repeat study, 40 C/75% RH, 10 Days, Lot# STN07492, hydrobromide
[15] = repeat study, 40 C/75% RH, Initial, Lot# STN07491, hydrobromide
[16] = repeat study, 40 C/75% RH, Initial, Lot# STN07492, hydrobromide

Structure (SMILES): Br.CC(NC(C)(C)C)C(=O)c1cccc(Cl)c1 (stereo not shown) [Bupropion HBr, bupropion hydrobromide]
- Disproportionation of the salt at elevated temperature [1]: did not occur
- Order of stability (assay) with IPA & EtOH ([2]; DS and excipients spiked with IPA & EtOH, 32 days, closed vials, 40° C.): HCl>HBr>tosylate>maleate>fumarate
- Order of stability (assay) with water ([2]; DS and excipients spiked with water, 32 days, closed vials, 40° C.): tosylate>maleate>HCl>HBr>fumarate
- Stability in the forced degradation stability studies, overall ([2]; DS and spiked DS, 40° C./75% RH): superior stability in a closed container
- Content of impurity 3-CBZ, order of salts [2, 10]: maleate > HBr > HCl > Fumarate
- Content of impurity 852U77, order of salts [2, 10]: fumarate > HBr ≈ HCl ≈ maleate ≈ tosylate
- Total imp., order of salts [2, 10]: fumarate > maleate > HBr > HCl > tosylate
- Content of impurity 3-CBZ, order of salts [2, 11]: HCl > HBr ≈ maleate ≈ fumarate
- Content of impurity 852U77, order of salts [2, 11]: fumarate > HBr > maleate > HCl
- Total imp., order of salts [2, 11]: fumarate > HBr > HCl > tosylate > maleate
- Degradation products and retained activity compared with all salts tested ([2]; open and closed vials, 40 degrees C./75% RH, 'after at least 3 months or after at least 6 months'): least amount of degradation products
- Impurities (3-CBZ, 852U77 & total) compared to the other salts [2, 12]: lowest
- Order of stability (assay, % potency) [2, 12]: HBr>HCl=tosylate>fumarate>maleate
- pH (aq. 0.5%), Original (Initial APIs) ([3]; 0.5% aqueous solution, original API salts): 5.92
- pH (aq. 0.5%) ([3]; Table 3, supplier API): 5.92
- Moisture Content (KF) ([4]; Table 3, supplier API): 0.00%
- KF (moisture content), Original (Initial APIs) ([4]; original API salts): 0.00%
- Solubility, EtOH ([5]; EtOH): 92 mg/mL
- Solubility, IPA ([5]; IPA): 12 mg/mL
- Solubility, Water ([5]; water): 143 mg/mL
- Degradation in the presence of excipients (formation of impurities, words) ([6]; listed as HBr): lowest amount of degradation
- Degradation in the presence of excipients (formation of impurities, words) ([6]; listed as bupropion HBr): significant improvements in stability compared to bupropion HCl
- DVS: maximum water uptake ([7]; at 90% RH): 0.14 % weight
- DVS: water uptake / hygroscopicity (words) ([7]; listed as HBr): non-hygroscopic
- DVS: water uptake / hygroscopicity (words) ([7]; listed as bupropion HBr): no significant water uptake
- Impurities and % potency compared to the HCl salt ([8]; closed bottles, 40 degrees C. and 75% relative humidity): amount of impurities was consistently lower and the % potency was consistently higher
- % Assay ([8]; 40° C./75% RH, 14-Days): 98.8%
- % Impurities 3-CBZ ([8]; 40° C./75% RH, 14-Days): 0.015%
- % Impurities 20U78/dilu ([8]; 40° C./75% RH, 14-Days): 0.048%
- % Impurities 827U76 ([8]; 40° C./75% RH, 14-Days): 0.012%
- % Impurities 852U77 ([8]; 40° C./75% RH, 14-Days): 0.058%
- % Impurities Total unknown ([8]; 40° C./75% RH, 14-Days): 0.105%
- Total (%) impurities ([8]; 40° C./75% RH, 14-Days): 0.23%
- % Assay ([8]; 40° C./75% RH, 24 Days): 99.5%
- % Impurities 3-CBZ ([8]; 40° C./75% RH, 24 Days): 0.022%
- % Impurities 20U78/dilu ([8]; 40° C./75% RH, 24 Days): 0.038%
- % Impurities 827U76 ([8]; 40° C./75% RH, 24 Days): 0.016%
- % Impurities 852U77 ([8]; 40° C./75% RH, 24 Days): 0.052%
- % Impurities Total unknown ([8]; 40° C./75% RH, 24 Days): 0.104%
- Total (%) impurities ([8]; 40° C./75% RH, 24 Days): 0.23%
- % Assay ([8]; 40° C./75% RH, Initial): 99.6%
- % Impurities 3-CBZ ([8]; 40° C./75% RH, Initial): 0.007%
- % Impurities 20U78/dilu ([8]; 40° C./75% RH, Initial): 0.044%
- % Impurities 852U77 ([8]; 40° C./75% RH, Initial): 0.009%
- % Impurities Total unknown ([8]; 40° C./75% RH, Initial): 0.098%
- Total (%) impurities ([8]; 40° C./75% RH, Initial): 0.16%
- % Impurities 827U76 ([8]; repeat study, 40 C/75% RH, 10 Days): 0.039%
- % Assay [8, 13]: 98.2%
- % Impurities 3-CBZ [8, 13]: 0.070%
- % Impurities 20U78/dilu [8, 13]: 0.051%
- % Impurities 852U77 [8, 13]: 0.125%
- % Impurities Total unknown [8, 13]: 0.129%
- Total (%) impurities [8, 13]: 0.42%
- % Assay [8, 14]: 99.2%
- % Impurities 3-CBZ [8, 14]: 0.031%
- % Impurities 20U78/dilu [8, 14]: 0.044%
- % Impurities 852U77 [8, 14]: 0.055%
- % Impurities Total unknown [8, 14]: 0.15%
- Total (%) impurities [8, 14]: 0.24%
- % Impurities 20U78/dilu ([8]; repeat study, 40 C/75% RH, Initial): 0.041%
- % Assay [8, 15]: 99.5%
- % Impurities 3-CBZ [8, 15]: 0.011%
- % Impurities Total unknown [8, 15]: 0.129%
- Total (%) impurities [8, 15]: 0.17%
- % Assay [8, 16]: 99.6%
- % Impurities 3-CBZ [8, 16]: 0.007%
- % Impurities Total unknown [8, 16]: 0.194%
- Total (%) impurities [8, 16]: 0.23%
- Base value of bupropion released ([9]; 150 mg of the salt tested): 112 mg
- Base value of bupropion released ([9]; 174 mg of the salt tested): 130 mg
